The values that follow are results of earlier work, collected in patent US20230364004A1, “STABLE COMPOSITIONS CONTAINING A CANNABINOID” (ANGROW COMPANY LIMITED, priority 2022, published 2023).

For the series the following is noted: within 24 hours, simulated physiological condition (PH 7.4 and 37° C.).

With `C=C(C)[C@@H]1CCC(C)=C[C@H]1c1c(O)cc(CCCCC)cc1O` [CBD, cannabidiol], the CBD degraded is recorded as 10%.
